Data reported in patent publication US9011853B2, “B7-H4 fusion proteins and methods of use thereof” (Amplimmune, Inc., priority 2009, dated 2015).

System: SJL mice
Assay: PLP139-151-induced R-EAE model, clinical score and relapse
Format: in vivo, mouse
Protocol: For PLP139-151-induced R-EAE, 6- to 7-wk-old female SJL mice were immunized s.c. with 100 μL of an emulsion containing 200 μg of M. tuberculosis H37Ra and 50 μg of […] (HSLGKWLGHPDKF) (SEQ ID NO:139) distributed over three spots on the flank. Individual animals were observed daily and clinical scores assessed in a blinded fashion on a 0-5 scale as shown in Table 11 (Miller, et al., Curr. Protocols Immulo., Chapter 12, Unit 15.1). Unless otherwise mentioned, all mice were age and sex-matched for all experiments.
Mice were randomly divided into four groups. For the disease prevention model, B7-H4-Ig or control IgG at 3 mg/kg was injected intraperitoneally (i.p.) on the same day as PLP130-151 priming. For the therapeutic model, B7-H4-Ig or control IgG at 3 mg/kg was given i.p. beginning on approximately Day 21 post PLP130-151 priming. In both cases, B7-H4-Ig was administrated, 3 times a week, for 2-4 weeks.
To determine the therapeutic benefit of B7-H4-Ig, murine B7-H4-Ig was tested in the PLP139-151-induced R-EAE mouse model both for prevention of disease (treatment begun on the same day of disease induction) and therapeutic intervention (treatment begun during the disease remission) settings (FIG. 33). In both cases the disease course was followed for about 2 months to assess clinical disease following the grading system shown in […].
Female SJL mice were first immunized with PLP139-151 peptide emulsified in CFA and then randomized into 2 groups for either prevention or therapeutic treatment. For each treatment regimen there were 2 subgroups, with one subgroup receiving Control IgG and the other subgroup receiving murine B7-H4-Ig. Both Control IgG and murine B7-H4-Ig were given at 3 mg/kg, 3 times a week for 4 weeks. Prevention treatment (FIG. 34) means that murine B7-H4-Ig or Control IgG was administered starting on the day at PLP immunization (t=0). Therapeutic treatment (FIG. 35) means that murine B7-H4-Ig or Control IgG was administered beginning on Day 21 (t=21). The data is presented as the mean clinical score over the 55 day time course with 5 mice per group, and the clinical scores and injection were conducted double blinded.
The effect of B7-H4-Ig treatment on the number of Treg cells in vivo was analyzed in this study. The effect of B7-H4-Ig on the number and phenotype of CD4^+ T cells infiltrating into the CNS following B7-H4-Ig treatment, the relevant site for activity in vivo, was determined. […] SJL mice were first immunized with PLP139-151 peptide. B7-H4-Ig treatment started during remission (Day 23). Mice received mouse Control IgG, 100 μg, or B7-H4-Ig at either 60 or 300 μg, 3 times per week for 2 weeks or 4 weeks. Half of the animals (5 mice from each group) were euthanized on Day 35, after 6 doses of B7-H4-Ig. The rest of the animals (5 mice from each group) were euthanized on Day 50, after 12 doses of B7-H4-Ig. Mouse spleens, draining lymph nodes, spinal cords and brains were collected, tissues were made into a single cell suspension and counted via the use of a hemocytometer, and analyzed for the presence of effector/memory CD4^+ T cells (CD4^+CD44^+) and Treg cells (CD4^+CD25^+FoxP3^+). Whole cerebellar and lumbar spinal cord tissue samples were snap frozen and processed as described above to analyze the number of CD4^+ and FoxP3^+ cells present within the CNS by histology.
Human B7-H4-Ig was also tested for its therapeutic efficacy in the PLP139-151-induced R-EAE mouse model. […]

Substance | clinical scores (average), R-EAE (3 mg/kg i.p. 3 times a week for 4 weeks, preventative (t=0) and therapeutic (t=21) regimens, 0-5 scale (FIGS. 34, 35)) | disease symptoms during the acute phase of R-EAE (1st in vivo study, treatment from the day of PLP139-151/CFA priming) | mean clinical score, primary relapse (both 3 mg/kg (60 μg/dose) and 15 mg/kg (300 μg/dose), three times a week from day 23 (FIG. 46)) | mean clinical score, primary disease relapse (5 or 25 mg/kg 3 times a week for 4 weeks from Day 23, vs Synagis (FIG. 48A)) | long-term relapse rate (5 or 25 mg/kg 3 times a week for 4 weeks from Day 23, vs Synagis (FIG. 48B))
B7-H4-Ig: B7-H4 extracellular domain fused to Ig Fc; bare label is the human protein in Example 3, murine protein in Examples 1, 2, 5, 7-11 | 0-0.5 | did not affect disease symptoms during the acute phase of R-EAE | significantly prevented the primary relapsing | – | –
Human B7-H4-Ig: human B7-H4 extracellular domain fused to hinge, CH2 and CH3 regions of human immunoglobulin Cγ1 chain; representative SEQ ID NOs:114-137 | – | – | – | reduction of mean clinical score | reduction in long-term relapse rate
